{"source": "patent US20090304720A1", "about": "“Active Agent-Loaded Nanoparticles Based On Hydrophilic Proteins” (LTS Lohmann Therapie-Systeme AG, priority 2006, published 2009)", "test_system": "mice", "assay": "tail-flick test, analgesia (nociceptive response) after intravenous injection", "type": "in vivo, mouse", "conditions": "7.0 mg/kg loperamide, cut-off ten seconds = 100% MPE", "method": "The preparations were applied intravenously to mice, at a dosage of 7.0 mg/kg loperamide. Based on an average body weight of a mouse of 20 g, the animals received an application amount of 200 μl of the above-mentioned preparation.\nWith the aid of this system, the analgesic effects shown in FIG. 1 were achieved after intravenous injection using the above-mentioned active agent loperamide. Analgesia (Nociceptive Response) was detected by the tail-flick test, wherein a hot beam of light is projected onto the tail of the mouse and the time that passes until the mouse flicks away its tail is measured. After ten seconds (=100% MPE) the experiment is discontinued so as not to cause injury to the mouse. Negative MPE values occur in those cases where following administration of the preparation, the mouse flicks away its tail earlier than before the treatment.\nAs a comparison, a loperamide solution 0.7 mg/ml in 2.6%-vol. ethanol was used.", "data": [{"smiles": "CN(C)C(=O)C(CCN1CCC(O)(c2ccc(Cl)cc2)CC1)(c1ccccc1)c1ccccc1", "note": "[loperamide]", "values": [{"measurement": "analgesic effect (maximal possible effect, MPE)", "value": "no analgesic effect"}]}]}
